pIC50: −log10 of the molar value. Read-outs that look alike come from different tables or passages of the source.
Target: Full-length inactive AKT1 (Homo sapiens, UniProt P31749)
Experiment: Inactive Akt Alpha Screen Assay
Assay type: biochemical
Conditions: for IC50: AlphaScreen assay (values not marked with *), read-out: Akt1 IC50, (AlphaScreen) (μM) (or if marked with “*” HTRF assay); for pIC50: read-out: Akt1 IC50, (AlphaScreen)
Protocol: AKT1 activity was assayed using the GSK3-derived biotinylated peptide substrate, crosstide (biotin-[…]), and AlphaScreen™ (Amplified Luminescent Proximity Homogeneous Assay) technology. AKT1 activation was achieved by the addition of the activating kinases PDK1 and MAPKAPK2, lipid vesicles, and ATP. The extent of peptide phosphorylation was determined using a phospho-AKT substrate antibody and acceptor beads conjugated to Protein A and donor beads conjugated to streptavidin that bind to the biotin on the peptide. Excitation of the donor beads converted ambient oxygen to excited singlet oxygen which, when in close proximity to acceptor beads, reacted with acceptor beads resulting in signal amplification.
Assay plates were incubated for 90 minutes at room temperature in the dark, and the plates were read on a Perkin Elmer Envision Multilabel plate reader (excitation wavelength: […], emission wavelength: 570 nm).

[1] = values not marked with "*": AlphaScreen assay

Full-length inactive AKT1, sequence (P31749 whole entry): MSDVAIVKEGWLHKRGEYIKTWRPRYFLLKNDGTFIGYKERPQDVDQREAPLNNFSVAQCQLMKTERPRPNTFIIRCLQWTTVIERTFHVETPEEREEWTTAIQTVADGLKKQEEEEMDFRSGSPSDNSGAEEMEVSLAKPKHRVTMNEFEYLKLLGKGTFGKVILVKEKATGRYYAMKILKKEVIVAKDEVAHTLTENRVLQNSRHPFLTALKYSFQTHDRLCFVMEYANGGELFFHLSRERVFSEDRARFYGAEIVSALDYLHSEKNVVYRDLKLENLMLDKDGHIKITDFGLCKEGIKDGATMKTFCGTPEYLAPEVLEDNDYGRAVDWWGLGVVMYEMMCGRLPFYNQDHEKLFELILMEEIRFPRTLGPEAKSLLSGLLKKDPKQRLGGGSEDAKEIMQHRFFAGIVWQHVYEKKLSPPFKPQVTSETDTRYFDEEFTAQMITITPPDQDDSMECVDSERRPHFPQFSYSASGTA

| SMILES | pIC50 (values not marked with "*") | also measured |
| --- | --- | --- |
| CN1C(=O)COc2ccc(-c3ccc4nc(-c5cccnc5N)n(-c5ccc(C6(N)CCC6)cc5)c4n3)cc21 [Example 438, 6-{3-[4-(1-aminocyclobutyl)phenyl]-2-(2-aminopyridin-3-yl)-3H-imidazo[4,5-b]pyridin-5-yl}-4-methyl-2H-1,4-benzoxazin-3(4H)-one] |  | IC50: 0.0079 µM |
| Cc1cnc2c(c1)nc(-c1cccnc1N)n2-c1ccc(CC(=O)Nc2ccc3nc(C)ccc3c2)cc1 [Example 194, 2-(4-(2-(2-aminopyridin-3-yl)-6-methyl-3H-imidazo[4,5-b]pyridin-3-yl)phenyl)-N-(2-methylquinolin-6-yl)acetamide] | 7.33 |  |
| Cc1cccc(S(=O)(=O)NCc2ccc(-n3c(-c4cccnc4N)nc4cc(Br)cnc43)cc2)c1 [Example 163, N-{4-[2-(2-aminopyridin-3-yl)-6-bromo-3H-imidazo[4,5-b]pyridin-3-yl]benzyl}-3-methylbenzenesulfonamide] | 6.40 |  |
| CN(C)S(=O)(=O)Nc1cccc(-c2ccc3nc(-c4cccnc4N)n(-c4ccc(C5(N)CCC5)cc4)c3n2)c1 [Example 455, N′-(3-{3-[4-(1-aminocyclobutyl)phenyl]-2-(2-aminopyridin-3-yl)-3H-imidazo[4,5-b]pyridin-5-yl}phenyl)-N,N-dimethylsulfamide] |  | IC50: 0.011 µM |
| CCOc1cccc(-c2cnc3c(c2)nc(-c2cccnc2N)n3-c2ccc(CNC(=O)c3ccccc3)cc2)c1 [Example 135, N-{4-[2-(2-aminopyridin-3-yl)-6-(3-ethoxyphenyl)-3H-imidazo[4,5-b]pyridin-3-yl]benzyl}benzamide] |  | pIC50 [1]: 5.74 |
| CCOC(=O)Cc1ccc(-n2c(-c3cccnc3N)nc3ccc(Cl)nc32)cc1 [Example 241, ethyl 2-(4-(2-(2-aminopyridin-3-yl)-5-chloro-3H-imidazo[4,5-b]pyridin-3-yl)phenyl)acetate] | 6.48 |  |
| Cc1cnc2c(c1)nc(-c1cccnc1N)n2-c1ccc(CNC(=O)CCC2CCCCC2)cc1 [Example 213, N-(4-(2-(2-aminopyridin-3-yl)-6-methyl-3H-imidazo[4,5-b]pyridin-3-yl)benzyl)-3-cyclohexylpropanamide] | 6.32 |  |
| Cc1cccc(C(=O)NCc2ccc(-n3c(-c4cccnc4N)nc4cc(C)cnc43)cc2)c1 [Example 216, N-(4-(2-(2-aminopyridin-3-yl)-6-methyl-3H-imidazo[4,5-b]pyridin-3-yl)benzyl)-3-methylbenzamide] | 7.11 |  |
| Cc1cnc2c(c1)nc(-c1cccnc1N)n2-c1ccc(CNC(=O)c2cncs2)cc1 [Example 276, N-(4-(2-(2-aminopyridin-3-yl)-6-methyl-3H-imidazo[4,5-b]pyridin-3-yl)benzyl)thiazole-5-carboxamide] | 6.11 |  |
| Nc1ncccc1-c1nc2cc(-c3ccc4cc[nH]c4c3)cnc2n1-c1ccc(CNC(=O)c2ccccc2)cc1 [Example 139, N-{4-[2-(2-aminopyridin-3-yl)-6-(1H-indol-6-yl)-3H-imidazo[4,5-b]pyridin-3-yl]benzyl}benzamide] |  | pIC50 [1]: 6.44 |
| Cc1cnc2c(c1)nc(-c1cccnc1N)n2-c1ccc(CNC(=O)c2ccc(C)s2)cc1 [Example 280, N-(4-(2-(2-aminopyridin-3-yl)-6-methyl-3H-imidazo[4,5-b]pyridin-3-yl)benzyl)-5-methylthiophene-2-carboxamide] | 6.96 |  |
| Cc1cc(C)cc(C(=O)NCc2ccc(-n3c(-c4cccnc4N)nc4cc(C)cnc43)cc2)c1 [Example 277, N-(4-(2-(2-aminopyridin-3-yl)-6-methyl-3H-imidazo[4,5-b]pyridin-3-yl)benzyl)-3,5-dimethylbenzamide] | 6.41 |  |
| Nc1ncccc1-c1nc2ccc(-c3ccccc3)nc2n1-c1ccc(C2(NC(=O)Nc3ccccc3)CCC2)cc1 [Example 381, 1-(1-(4-(2-(2-aminopyridin-3-yl)-5-phenyl-3H-imidazo[4,5-b]pyridin-3-yl)phenyl)cyclobutyl)-3-phenylurea] | 7.27 |  |
| CC(=O)Nc1ccc(C(=O)NCc2ccc(-n3c(-c4cccnc4N)nc4cccnc43)cc2)cc1 [Example 71] |  | pIC50 [1]: 6.22 |
| Cc1cc2nc(-c3cccnc3N)n(-c3ccc(CNC(=O)c4cccc(F)c4)cc3)c2nc1C [Example 321, N-(4-(2-(2-aminopyridin-3-yl)-5,6-dimethyl-3H-imidazo[4,5-b]pyridin-3-yl)benzyl)-3-fluorobenzamide] | 7.12 |  |
| COc1ccc(NC(=O)c2ccc(-n3c(-c4cccnc4N)nc4cccnc43)cc2)cc1F [Example 185, 4-[2-(2-aminopyridin-3-yl)-3H-imidazo[4,5-b]pyridin-3-yl]-N-(3-fluoro-4-methoxyphenyl)benzamide] | 5.60 |  |
| Cc1cnc2c(c1)nc(-c1cccnc1N)n2-c1ccc(CNC(=O)c2ccc(Cl)c(C)c2)cc1 [Example 272, N-(4-(2-(2-aminopyridin-3-yl)-6-methyl-3H-imidazo[4,5-b]pyridin-3-yl)benzyl)-4-chloro-3-methylbenzamide] | 6.68 |  |
| Nc1ncccc1-c1nc2cc(F)cnc2n1-c1ccc(CC(=O)Nc2ccccc2)cc1 [Example 234, 2-(4-(2-(2-aminopyridin-3-yl)-6-fluoro-3H-imidazo[4,5-b]pyridin-3-yl)phenyl)-N-phenylacetamide] | 7.28 |  |
| Nc1ncccc1-c1nc2cccnc2n1-c1ccc(CNC(=O)CC(c2ccccc2)c2ccccc2)cc1 [Example 42] |  | pIC50 [1]: 5.70 |
| Cc1ccc(NC(=O)c2ccc(-n3c(-c4cccnc4N)nc4cccnc43)cc2)cc1 [Example 186, 4-[2-(2-aminopyridin-3-yl)-3H-imidazo[4,5-b]pyridin-3-yl]-N-(4-methylphenyl)benzamide] | 5.60 |  |

Further molecules by rising pIC50 (values not marked with "*"), results first:

| pIC50 (values not marked with "*") | SMILES | also measured |
| --- | --- | --- |
| 7.39 | Cc1cnc2c(c1)nc(-c1cccnc1N)n2-c1ccc(CNC(=O)c2cccc(F)c2)cc1 [Example 232, N-(4-(2-(2-aminopyridin-3-yl)-6-methyl-3H-imidazo[4,5-b]pyridin-3-yl)benzyl)-3-fluorobenzamide] |  |
| 7.43 | NC(=O)c1ccccc1-c1ccc2nc(-c3cccnc3N)n(-c3ccc(C4(N)CCC4)cc3)c2n1 [Example 384, 2-(3-(4-(1-aminocyclobutyl)phenyl)-2-(2-aminopyridin-3-yl)-3H-imidazo[4,5-b]pyridin-5-yl)benzamide] |  |
| 7.48 | CC(=O)Nc1ccc(-c2ccc3nc(-c4cccnc4N)n(-c4ccc(CNC(=O)c5ccccc5)cc4)c3n2)cc1 [Example 236, N-(4-(5-(4-acetamidophenyl)-2-(2-aminopyridin-3-yl)-3H-imidazo[4,5-b]pyridin-3-yl)benzyl)benzamide] |  |
| 7.55 | CC(=O)Nc1cccc(C(=O)NCc2ccc(-n3c(-c4cccnc4N)nc4ccc(C)nc43)cc2)c1 [Example 248, 3-acetamido-N-(4-(2-(2-aminopyridin-3-yl)-5-methyl-3H-imidazo[4,5-b]pyridin-3-yl)benzyl)benzamide] |  |
| 7.57 | Nc1ncccc1-c1nc2ccc(-c3ccccc3)nc2n1-c1ccc(CNC(=O)c2ccccc2)cc1 [Example 202, N-(4-(2-(2-aminopyridin-3-yl)-5-phenyl-3H-imidazo[4,5-b]pyridin-3-yl)benzyl)benzamide] |  |
| 7.59 | Nc1ncccc1-c1nc2cc(-c3ccc(CO)cc3)cnc2n1-c1ccc(CNC(=O)c2ccccc2)cc1 [Example 173, N-(4-{2-(2-aminopyridin-3-yl)-6-[4-(hydroxymethyl)phenyl]-3H-imidazo[4,5-b]pyridin-3-yl}benzyl)benzamide] |  |
| 7.92 | Nc1ncccc1-c1nc2ccc(-c3cccnc3)nc2n1-c1ccc(NC(=O)c2ccccc2)cc1 [Example 255, N-(4-(2-(2-aminopyridin-3-yl)-5-(pyridin-3-yl)-3H-imidazo[4,5-b]pyridin-3-yl)phenyl)benzamide] |  |
| 8.02 | COc1ccc(-c2ccc3nc(-c4cccnc4N)n(-c4ccc(C5(N)CCC5)cc4)c3n2)cc1O [Example 429, 5-{3-[4-(1-aminocyclobutyl)phenyl]-2-(2-aminopyridin-3-yl)-3H-imidazo[4,5-b]pyridin-5-yl}-2-methoxyphenol] |  |
| 8.11 | Nc1ncccc1-c1nc2ccc(-c3ccc(N4CCOCC4)nc3)nc2n1-c1ccc(C2(N)CCC2)cc1 [Example 404, 3-{3-[4-(1-aminocyclobutyl)phenyl]-5-(6-morpholin-4-ylpyridin-3-yl)-3H-imidazo[4,5-b]pyridin-2-yl}pyridin-2-amine] |  |
| 8.15 | COc1ccc(F)c(-c2ccc3nc(-c4cccnc4N)n(-c4ccc(C5(N)CCC5)cc4)c3n2)c1 [Example 413, 3-{3-[4-(1-aminocyclobutyl)phenyl]-5-(2-fluoro-5-methoxyphenyl)-3H-imidazo[4,5-b]pyridin-2-yl}pyridin-2-amine] |  |
| 8.18 | Nc1ncccc1-c1nc2ccc(-c3ccccc3)nc2n1-c1ccc(C2(N)COC2)cc1 [Example 373, 3-(3-(4-(3-aminooxetan-3-yl)phenyl)-5-phenyl-3H-imidazo[4,5-b]pyridin-2-yl)pyridin-2-amine] |  |
| 8.19 | CN(C)Cc1cccc(-c2ccc3nc(-c4cccnc4N)n(-c4ccc(C5(N)CCC5)cc4)c3n2)c1 [Example 398, 3-(3-(4-(1-aminocyclobutyl)phenyl)-5-(3-((dimethylamino)methyl)phenyl)-3H-imidazo[4,5-b]pyridin-2-yl)pyridin-2-amine] |  |
| 8.42 | Nc1ncccc1-c1nc2ccc(-c3cccc4[nH]ccc34)nc2n1-c1ccc(C2(N)CCC2)cc1 [Example 397, 3-(3-(4-(1-aminocyclobutyl)phenyl)-5-(1H-indol-4-yl)-3H-imidazo[4,5-b]pyridin-2-yl)pyridin-2-amine] |  |
